# Legend:
# [1] = target: T1, HDAC6, or tubulin deacetylase (TDAC) (Homo sapiens, UniProt Q9UBN7); assay: Inhibition of TDAC (HDAC6, tubulin deacetylase) in MM.1S cells; format: cell-based; conditions: low nanomolar concentrations
# T1 construct: endogenous in cells; host or cells: MM.1S cells
# T1 sequence (Q9UBN7 1-1215): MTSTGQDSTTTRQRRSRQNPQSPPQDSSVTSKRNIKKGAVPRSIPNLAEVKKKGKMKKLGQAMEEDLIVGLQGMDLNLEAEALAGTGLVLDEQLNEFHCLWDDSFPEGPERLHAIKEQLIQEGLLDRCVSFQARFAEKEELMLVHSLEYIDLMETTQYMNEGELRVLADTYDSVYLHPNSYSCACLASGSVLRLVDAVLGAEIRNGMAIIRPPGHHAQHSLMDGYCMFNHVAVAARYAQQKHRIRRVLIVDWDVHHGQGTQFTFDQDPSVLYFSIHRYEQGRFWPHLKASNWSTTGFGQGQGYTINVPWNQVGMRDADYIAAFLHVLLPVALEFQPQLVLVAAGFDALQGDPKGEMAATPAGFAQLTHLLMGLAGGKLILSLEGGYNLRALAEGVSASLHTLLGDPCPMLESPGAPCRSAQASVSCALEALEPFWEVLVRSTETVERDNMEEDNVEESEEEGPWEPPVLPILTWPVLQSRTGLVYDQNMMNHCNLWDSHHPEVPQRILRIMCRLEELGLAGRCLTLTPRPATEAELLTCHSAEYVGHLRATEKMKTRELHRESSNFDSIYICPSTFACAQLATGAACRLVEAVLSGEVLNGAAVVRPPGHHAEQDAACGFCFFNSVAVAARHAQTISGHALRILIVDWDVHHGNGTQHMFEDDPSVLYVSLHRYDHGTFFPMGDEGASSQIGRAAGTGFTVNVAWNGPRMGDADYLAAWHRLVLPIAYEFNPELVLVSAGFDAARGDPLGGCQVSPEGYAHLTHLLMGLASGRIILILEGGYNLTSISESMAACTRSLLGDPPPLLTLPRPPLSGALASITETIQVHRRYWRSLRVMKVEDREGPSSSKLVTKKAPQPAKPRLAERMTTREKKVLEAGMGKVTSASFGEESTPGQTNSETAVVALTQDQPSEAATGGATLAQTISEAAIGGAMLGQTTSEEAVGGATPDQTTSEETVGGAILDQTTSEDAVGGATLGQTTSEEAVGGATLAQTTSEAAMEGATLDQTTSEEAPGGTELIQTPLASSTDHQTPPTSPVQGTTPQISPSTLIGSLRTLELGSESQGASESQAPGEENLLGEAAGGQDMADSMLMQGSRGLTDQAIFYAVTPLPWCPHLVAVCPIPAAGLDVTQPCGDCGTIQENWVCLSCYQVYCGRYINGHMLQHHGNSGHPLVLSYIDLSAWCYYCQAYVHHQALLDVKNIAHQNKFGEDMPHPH
# From the text: (§1) Cell lysates were subjected to SDS-PAGE, transferred to polyvinylidene difluoride (PVDF) membrane, and immunoblotted with anti-acetylated histone (Upstate Biotechnology, Lake Placid, N.Y.), anti-p21 antibody (Santa Cruz Biotech, Santa Cruz, Calif.), anti-PARP; anti-caspase-8, anti-caspase-9 and anti-caspase 3 (Cell Signaling, MA); as well as anti-polyubiquitin conjugates, anti-LMP7, anti-β5 (Affiniti, Mamhead, Exeter, Devon, UK). Membranes were stripped and re-probed with anti-tubulin or anti-β-actin (Sigma, St Louis, Mo.) to ensure equivalent protein loading.
# MM cells = assay: Combination with proteasome inhibitor bortezomib on MM cells; format: cell-based, human
# Protocol: DNA synthesis was measured by 3H-thymidine (NEN Products, Boston, Mass.) uptake. Cells were pulsed with 3H-thymidine (0.5 μCi/well) during the last 8 hours of 48-hour cultures. All of the experiments were performed in triplicate. Statistical significance of differences observed in drug-treated versus control cultures was determined using Student's t test. The minimal level of significance was p<0.05. […] The survival curves for mice were computed using the Kaplan-Meier method. The survival time differences between the control and treated group were compared using a log-rank test. The median survival times were compared using the Fisher-exact test. To compare the rate of tumor growth in the two arms, a linear mixed effect model (random coefficient model) was fitted.
# MM patient cells = assay: Growth inhibition (MTS assay and tritiated-thymidine uptake) in MM patient cells; format: cell-based; conditions: Homo sapiens, 48 hours, read-out: median inhibitory concentration, myeloma cell growth
# Protocol: (§2) Bortezomib-sensitive (MM.1S) and Bortezomib-resistant (MM.1R) human MM cell lines, as well as RPMI-8226 cells resistant to Doxorubicin (Dox 40), Mitoxantrone (MR20), and Melphalan (LR5), were cultured in RPMI-1640 media (Cellgro, Mediatech, VA) with 10% fetal bovine serum, 2 mmol/L L-glutamine (GIBCO, Grand Island, N.Y.), 100 U/mL penicillin, and […] streptomycin (GIBCO). Drug-resistant cell lines were cultured with either doxorubicin, mitoxantrone, melphalan or bortezomib to confirm their lack of drug sensitivity. MM patient cells were purified (>95% CD138+) by positive selection with anti-CD138 MACS Microbeads (Miltenyi, San Diego, Calif.).
# (§3) DNA synthesis was measured by 3H-thymidine (NEN Products, Boston, Mass.) uptake. Cells were pulsed with 3H-thymidine (0.5 μCi/well) during the last 8 hours of 48-hour cultures. All of the experiments were performed in triplicate.
# (§4) Cells from 24-, 48- or 72-hour cultures in 200 μL media plus drug were pulsed with 40 μL of 5 mg/mL MTS to each well for the last 4 hours of the cultures. Absorbance was measured at 490 nm using a spectrophotometer (Molecular Devices Corp., Sunnyvale, Calif.).
# [2] = tested on: MM.1S cells co-cultured with bone marrow stromal cells; assay: MM.1S proliferation in co-culture with bone marrow stromal cells; format: cell-based, human
# Protocol: Bone marrow specimens were obtained from patients with MM. Mononuclear cells, separated by FicoII-Hipaque density sedimentation, were used to establish long-term BM cultures. When an adherent cell monolayer had developed, cells were harvested in HBSS containing 0.25% trypsin and 0.02% EDTA and were washed and collected by centrifugation. The BMSCs were then plated onto flat-bottom 96-well plates overnight, and then 3×10^4 mM.1S cells were added for 48 hours. 150 μL of supernatant was removed and cells were pulsed with [3H]thymidine (0.5 μCi/well) during the last 8 hours of 48-hour cultures.
# [3] = tested on: MM cell lines resistant to conventional therapies; assay: Growth inhibition (MTS assay and tritiated-thymidine uptake) in MM cell lines; format: cell-based; conditions: Homo sapiens, 48 h, read-out: median inhibitory concentration, myeloma cell growth
# Protocol: as §2, §3, §4
# MM.1S cells = assay: Western blot of apoptosis and cell cycle markers in MM.1S cells; format: cell-based, human
# From the text: as §1
smiles,measurement,setting,value
"Cc1[nH]c2ccccc2c1CCNCc1ccc(/C=C/C(=O)NO)cc1 [Compound (III), N-hydroxy-3-[4-[[[2-(2-methyl-1H-indol-3-yl)-ethyl]-amino]methyl]phenyl]-2E-2-propenamide]",inhibition of TDAC,[1],dose-dependent inhibition
same,activity in combination with bortezomib,MM cells,Synergistic activity
same,IC50,MM patient cells,< 10 nM
same,MM.1S myeloma cell proliferation,[2],inhibited
same,IC50,[3],< 10 nM
same,c-myc expression,MM.1S cells,down-regulation
same,p21 expression,MM.1S cells,up-regulation
same,"cleavage of caspase 8, caspase 9, caspase 3 and PARP",MM.1S cells; 20 nM,Significant cleavage

# From patent US8883842B2, “Use of HDAC inhibitors for the treatment of myeloma” (Novartis AG, priority 2005, dated 2014)
